Read-outs that look alike come from different tables or passages of the source.
Legend:
[1] = system: PI3Kα wide type cell line SK-BR-3; assay: Cell Proliferation IC50 Assay (CellTiter-Glo), SK-BR-3; format: cell-based; settings: Homo sapiens; SK-BR-3 (PI3Kα wild type), 72 hours, CellTiter-Glo; read-out: IC50 (μM) SK-BR-3
From the text: (§1) PI3Kα H1047R mutation cell line T-47D and MDA-MB-453, E545K mutation cell line MDA-MB-361 and PI3Kα wide type cell line SK-BR-3 were purchased from Cobioer Biotech (cat. no CBP60397, CBP60386, CBP60383 and CBP60413 respectively). The CellTiter-Glo Direct Cell Proliferation Assay Kit was purchased from Prornega (cat. No. G7573)
(§2) For cell proliferation assay in each cell line: • a. Prepare complete medium (R PMI 1640, DMEM or McCoys): Add FBS and appropriate additives according to the information sheet provided by the vendor. Mix gently. • b. Prepare single cell suspension and count the cell numbers and adjust cells to appropriate density. • c. Add 80 μL of cell suspension to 96-well opaque-walled clear bottom plates according to the planned plate layout and place the plates in the CO2 incubator overnight. • d. Prepare intermediate plate: 10 μl of diluted test compounds or staurosporine solution (200×) is added to a 96 deep well plate. Then 390 μl of culture medium without FBS is added to the respective wells. • e. Transfer 20 μL of the solutions from the above intermediate plate to the wells of the plate prepared containing 80 μL of the culture medium and cells. The total dilution is 200 folds. • f. The cells were then incubated at 5% CO2, 37° C. for 72 hours. • g. Equilibrate the plate and its contents to room temperature for approximately 30 minutes. • h. Add 100 μL of CellTiter-Glo reagent to the assay plate • i. Mix contents for 10 minutes on an orbital shaker to induce cell lysis. • j. Allow the plate to incubate at room temperature for 10 minutes to stabilize luminescent signal, • k. Paste the clear bottom with white back seal and record luminescence with Varioskan LUX plate reader.
(§3) Inhibition % and IC50 value were calculated by the formula described below: […]

[2] = system: PI3Kα H1047R mutation cell line T-47D; assay: Cell Proliferation IC50 Assay (CellTiter-Glo), T-47D; format: cell-based; settings: Homo sapiens, T47D (H1047R), 72 hours, CellTiter-Glo, read-out: IC50 (μM) T47D
From the text: as §1, §2, §3

IC50 [1]	IC50 ([2]; T47D, 72 h)	SMILES	IC50 [2]
> 10 µM	3.43 µM	Cc1cc([C@@H](C)Nc2ccccc2C(=O)NS(=O)(=O)C2CC2)c2oc(-c3ccc4nn(C)cc4c3)cc(=O)c2c1 [Example 157, (R)—N-(cyclopropylsulfonyl)-2-((1-(6-methyl-2-(2-methyl-2H-indazol-5-yl)-4-oxo-4H-chromen-8-yl)ethyl)amino)benzamide]	
> 10 µM	5.5 µM	Cc1cc([C@@H](C)Nc2ccccc2C(=O)NS(C)(=O)=O)c2oc(-c3ccc4nn(C)cc4c3)cc(=O)c2c1 [Example 158, (R)-2-((1-(6-methyl-2-(2-methyl-2H-indazol-5-yl)-4-oxo-4H-chromen-8-yl)ethyl)amino)-N-(methylsulfonyl)benzamide]	
> 10 µM	0.41 µM	CC(=O)N1CCN(c2ccc(-c3oc4c(C(C)Nc5ccccc5S(N)(=O)=O)cc(C)cc4c(=O)c3C)cc2)CC1 (stereo not drawn) [Example 159, 2-((1-(2-(4-(4-acetylpiperazin-1-yl)phenyl)-3,6-dimethyl-4-oxo-4H-chromen-8-yl)ethyl)amino)benzenesulfonamide]	
> 10 µM	0.23 µM	Cc1cc([C@@H](C)Nc2ccccc2C(=O)O)c2oc(-c3ccc(-c4cn(C)cn4)cc3)c(C)c(=O)c2c1 [Example 162, (R)-2-((1-(3,6-dimethyl-2-(4-(1-methyl-1H-imidazol-4-yl)phenyl)-4-oxo-4H-chromen-8-yl)ethyl)amino)benzoic acid]	
> 10 µM	0.38 µM	Cc1cc([C@@H](C)Nc2ccccc2C(=O)O)c2oc(-c3ccc(-c4cnn(C)c4)nc3)cc(=O)c2c1 [Example 164, (R)-2-((1-(6-methyl-2-(6-(1-methyl-1H-pyrazol-4-yl)pyridin-3-yl)-4-oxo-4H-chromen-8-yl)ethyl)amino)benzoic acid]	

The next lines start with the compound.

SMILES	IC50 [1]	IC50 ([2]; T47D, 72 h)	IC50 [2]
Cc1cc([C@@H](C)Nc2ccccc2C(=O)O)c2oc(-c3ccc(Cn4ccnc4)cc3)c(C)c(=O)c2c1 [Example 146, (R)-2-((1-(2-(4-((1H-imidazol-1-yl)methyl)phenyl)-3,6-dimethyl-4-oxo-4H-chromen-8-yl)ethyl)amino)benzoic acid]	> 10 µM	0.18 µM	
Cc1cc(C(C)Nc2ccccc2C(=O)O)c2oc(-c3cnc(N4CCOCC4)nc3)cc(=O)c2c1 (stereo not drawn) [Example 152, 2-((1-(6-methyl-2-(2-morpholinopyrimidin-5-yl)-4-oxo-4H-chromen-8-yl)ethyl)amino)benzoic acid]	> 10 µM	6.9 µM	
CC(=O)N1CCN(c2ccc(-c3oc4c([C@@H](C)Nc5ccccc5C(=O)O)cc(C)cc4c(=O)c3C)cn2)CC1 [Example 153, (R)-2-((1-(2-(6-(4-acetylpiperazin-1-yl)pyridin-3-yl)-3,6-dimethyl-4-oxo-4H-chromen-8-yl)ethyl)amino)benzoic acid]	> 10 µM	0.29 µM	
Cc1cc(C(C)Nc2ccccc2C(=O)NO)c2oc(-c3ccc4nn(C)cc4c3)c(C)c(=O)c2c1 (stereo not drawn) [Example 156, 2-((1-(3,6-dimethyl-2-(2-methyl-2H-indazol-5-yl)-4-oxo-41H-chromen-8-yl)ethyl)amino)-N-hydroxybenzamide]	> 10 µM	0.13 µM	
Cc1cc([C@@H](C)Nc2ccccc2C(=O)O)c2oc(-c3ccc(OC4CCN(C)C4)cc3)c(C)c(=O)c2c1 (stereo partly drawn) [Example 160, 2-(((1R)-1-(3,6-dimethyl-2-(4-((1-methylpyrrolidin-3-yl)oxy)phenyl)-4-oxo-4H-chromen-8-yl)ethyl)amino)benzoic acid]	> 10 µM		0.065 µM
Cc1cc([C@@H](C)Nc2ccccc2C(=O)O)c2oc(-c3ccc(N4CCC(N(C)C)CC4)cc3)c(C)c(=O)c2c1 [Example 161, (R)-2-((1-(2-(4-(4-(dimethylamino)piperidin-1-yl)phenyl)-3,6-dimethyl-4-oxo-4H-chromen-8-yl)ethyl)amino)benzoic acid]	6.5 µM	0.067 µM	
Cc1cc([C@@H](C)Nc2ccccc2C(=O)O)c2oc(-c3ccc(-c4cn(C)cn4)nc3)c(C)c(=O)c2c1 [Example 163]	> 10 µM		0.12 µM

— patent US20250136568A1, “FUSED HETEROCYCLIC COMPOUNDS AS PI3KALPHA INHIBITORS” (Nanjing Zenshine Pharmaceuticals Co., Ltd., priority 2021, published 2025)
